Data from US20230203126A1, “A COMPOSITION COMPRISING S-ARRESTIN PEPTIDES” (WORG PHARMACEUTICALS (HANGZHOU) CO., LTD., priority 2019, published 2023).
No end group written: not given here.

Key:
[1] = tested on: MHC II molecules on dendritic cells (CD11c+ cells); assay: In vivo MHC class II loading assay (DR3tg mice); design: species or system HLA-DR3-transgenic mice; conditions: 100 µg peptide s.c., spleen 2 h post injection, 72 h co-culture, vs PBS-injected control
Experimental: FIG. 2: Peptide 17JK is correctly loaded on MHC class II in vivo. Response of peptide-specific CD4+ T cells towards peptide loaded in vivo on dendritic cells is shown. HLA-DR3-transgenic mice were injected subcutaneously with 100 µg of 17JK peptide. 2 h post injection, spleens were dissected and CD11c+ cells (dendritic cells) were isolated. These CD11c+ cells were co-cultured with peptide-specific CD4+ cells for 72 h at 37° C. IFNy was measured in the supernatant of these cultures to evaluate the response to peptide by the CD4+ T cells. (*** p<0.001 Mann-Whitney U-test)
FIG. 3: Peptide 15N3K is correctly loaded on MHC class II in vivo. […] IFNy was measured in the supernatant of these cultures to evaluate the response to peptide by the CD4+ T cells. […]
When 100 µg of peptide 9K1K was injected in DR2tg mice or when peptide 17JK or 15N3K was injected in DR3tg mice, these peptides could be detected on dendritic cells (CD11c+ cells) in the spleens of these mice 2 h post injection. Activation (IFNY production) of peptide-specific CD4+ T cells by the isolated CD11 c+ cells was used as a read-out. […]
DR3tg or DR2tg mice were injected with 100 µg of peptide in 100 µl PBS subcutaneously (s.c.) in the flank. […] After 72 hours, supernatant of these co-cultures was collected and CD4+ T cell activation was analysed by IFNy ELISA (R&D Systems, Abingdon, UK). […]

[2] = biological target: HLA-DRA1*0101, DRB1*0301 (DR3) (Homo sapiens, UniProt P01903+P01911, A100K/A102G/A103R/A169T/F55Y/I96L/K41T/L162R/M171V/P40S/Q125H/Q178H/Q39Y/R42S/S66N/T106N/T262R/W38E/Y61H); assay: DR3
Sequence of HLA-DRA1*0101, DRB1*0301 (DR3) (P01903 26-254 limits assumed, other chains not shown): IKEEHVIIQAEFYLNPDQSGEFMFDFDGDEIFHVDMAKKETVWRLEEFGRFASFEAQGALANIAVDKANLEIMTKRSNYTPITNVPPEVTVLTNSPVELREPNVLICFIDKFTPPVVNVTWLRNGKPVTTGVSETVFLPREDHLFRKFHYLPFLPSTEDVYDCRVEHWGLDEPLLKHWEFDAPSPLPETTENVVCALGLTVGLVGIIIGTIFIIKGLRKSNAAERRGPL
Experimental: (§1) Table printed on a drawing sheet, Figure 9
(§2) The patent's description of the figure: FIG. 9: Diverse patterns of in vitro peptide-MHC II binding for peptides 9K1, 17JK and 15N3K. Binding of peptides 9K1, 17JK and 15N3K to recombinant HLA-DRA1*0101, DRB1*0101 (DR1), DRB1*1501 (DR2), DRB1*0301 (DR3), DRB1*0401 (DR4), DRB1*1101 (DR11), DRB1*0405 (DR4*05) and DRB1*0901 (DR9) was assessed in vitro. IC50 values (µM) are presented and colour-coded per HLA-DR molecule. Low values (green) indicate strong binding, high values (red) indicate low(er) binding.
(§3) FIG. 9 depicts IC50 (µM) values of peptides 9K1K, 17JK and 15N3K binding to the indicated HLA-DR molecules and competing with a known competitor peptide. Values should be compared only within each HLA-DR molecule. Low IC50 values (green) indicate the strongest binder per HLA-DR molecule. Highest values per HLA-DR molecule (red) are indicative of the lowest binder for that HLA-DR molecule. Intermediate values are indicated in orange. […]
(§4) First copying reader's note: The sheet prints no unit; per the patent description the values are IC50 (µM) for peptide binding to the named HLA-DR molecules, with cell shading coding relative binding strength per HLA-DR molecule.
Where the first naming reader finds the target: description_of_the_figure: recombinant HLA-DRA1*0101, DRB1*0101 (DR1), DRB1*1501 (DR2), DRB1*0301 (DR3)

[3] = biological target: HLA-DRA1*0101, DRB1*0901 (DR9) (Homo sapiens, UniProt P01903+P01911, A100R/A103E/D57H/D86V/F55Y/F60I/F76Y/I96F/K127E/L162R/M171V/P40D/Q125H/Q99R/R33Q/R42F/S133A/S66N/T210M/V115G/W38K/Y107V/Y59G/Y89S); assay: DR9
Experimental: as §1, §2
(§5) FIG. 9 depicts IC50 (µM) values of peptides 9K1K, 17JK and 15N3K binding to the indicated HLA-DR molecules and competing with a known competitor peptide. Values should be compared only within each HLA-DR molecule. Low IC50 values (green) indicate the strongest binder per HLA-DR molecule. Highest values per HLA-DR molecule (red) are indicative of the lowest binder for that HLA-DR molecule. Intermediate values are indicated in orange. […] So, combining the peptides into a cocktail treatment, makes the treatment less restricted to a certain HLA-DR type.
as §4

[4] = biological target: HLA-DRA1*0101, DRB1*0101 (DR1) (Homo sapiens, UniProt P01903+P01911, A100R/D57E/F55L/F60I/F76Y/I96L/L162R/M171V/P40L/Q125E/R42F/V115G/Y59C); assay: DR1
Experimental: as §1, §2, §3, §4
Where the first naming reader finds the target: description_of_the_figure: recombinant HLA-DRA1*0101, DRB1*0101 (DR1)

[5] = biological target: HLA-DRA1*0101, DRB1*0405 (DR4*05) (Homo sapiens, UniProt P01903+P01911, A100R/A169T/D86S/F76Y/I96L/K127E/L162R/M171V/N62H/P40V/Q125Y/R42H/S133A/S149N/S66Y/V115G/V209L/W38E); assay: DR4*05
Experimental: as §1
Head of the field: DR4*05
as §2, §5, §4

| IC50 [4] | IC50 [5] | Substance | CD4+ T cell activation (IFNy) by CD11c+ cells isolated from spleen of injected mice [1] | IC50 [2] | IC50 [3] |
| --- | --- | --- | --- | --- | --- |
|  |  | KKKVIFKKISRDKSVTIYLGKKK-NH2 [15N3K] | significant CD4+ T cell activation | 14.7 µM | 18.4 µM |
| 2.16 µM | 17.3 µM | KKKLTFRRDLYFSRVQVYKKK-NH2 [17JK] | significant CD4+ T cell activation |  |  |
